Biological target: T1, ORP1 (Homo sapiens, UniProt Q9BXW6)
T1 construct: ORP1(534-950); host or cells: E. coli BL21(DE3)
T1 sequence (Q9BXW6 534-950): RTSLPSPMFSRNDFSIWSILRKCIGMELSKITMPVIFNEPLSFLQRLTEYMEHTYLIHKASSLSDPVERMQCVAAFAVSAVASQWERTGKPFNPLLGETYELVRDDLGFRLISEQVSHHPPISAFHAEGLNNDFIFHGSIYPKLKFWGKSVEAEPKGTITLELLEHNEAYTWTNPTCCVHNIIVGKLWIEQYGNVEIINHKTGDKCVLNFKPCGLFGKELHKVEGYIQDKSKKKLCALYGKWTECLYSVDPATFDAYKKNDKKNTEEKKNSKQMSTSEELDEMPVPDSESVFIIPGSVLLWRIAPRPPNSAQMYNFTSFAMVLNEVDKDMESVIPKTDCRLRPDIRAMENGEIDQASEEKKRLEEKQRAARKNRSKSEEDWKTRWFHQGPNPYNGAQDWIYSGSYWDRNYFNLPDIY
Assay: Effect on intrinsic protein fluorescence, ORP1
Conditions: protein 1 µM, excitation 280 nm
Experimental: Effect of spirooxepinoindoles on intrinsic protein fluorescence
Figure S12: Spirooxepinoindoles 21a and 15f affect intrinsic protein fluorescence in dose-dependent fashion:
Respective proteins (1 µM) were incubated with the compounds at different doses. Proteins were excited at 280 ± 10 nm and fluorescence spectra were measured from 315 ± 20 nm to 600 ± 20 nm with a step size of 2 nm. A) STARD1 and 21a. B) ORP1 and 21a. C) ORP2 and 21a. D) ORP2 and 15f.
(1 picture or pasted object on this page, not shown here)
Superdex 75 pg (Cytiva) using an ÄKTA Explorer (Cytiva) in buffer containing 10 mM Tris -HCl, pH 8, 150 mM NaCl, 5 % glycerol and 2 mM DTT.
Fluorescence intensity and polarisation
Fluorescence intensity and polarisation (FP) experiments were performed in a buffer containing 20 mM HEPES pH 7.5, 300 mM NaCl, 0.01 %v/v Tween-20, 0.5% glycerol and 2 mM DTT in a final volume of 30 µl in black, flat-bottom, non-binding 384-well plates (Corning). All compounds were dispensed using the LabCyte Echo 550 Liquid handler. […] For competition experiments, 20 nM 22-NBD-cholesterol or 80 nM 25-NBD-cholesterol was mixed with protein and incubated with desired concentrations of screening compounds (Table S4) The fluorescence polarisation signal was measured using a Spark Cyto multimode microplate reader (Tecan) with filters set at 485 ± 20 nm for excitation and at 535 ± 20 nm for emission. […]

## C[C@]12CC[C@@H]3C[C@H]1CC[C@@]21C(=Nc2ccc(-c4ccccc4)cc21)O3 [Compound 21a]
  Quenching of intrinsic fluorescence of ORP1: dose-dependently quenches

Reference: publication PMC11758220, “Identification of a Privileged Scaffold for Inhibition of Sterol Transport Proteins through the Synthesis and Ring Distortion of Diverse, Pseudo-Natural Products” (ACS Central Science, 2025)
